{
  "source": "patent US8067015B2",
  "about": "“Methods and compositions for the treatment and prevention of Staphylococcus and other bacterial infections” (priority 1997, dated 2011)",
  "key": {"[1]": {"tested_on": "S. aureus GISA", "assay": "Rat subcutaneous Dacron graft infection model, GISA strain", "type": "in vivo", "conditions": "Table 3B S. aureus, mean ± SD", "protocol": "(§1) Rats (Wistar adult males (300-350 g), n=15/experimental group) were anaesthetized, hair on their back shaved and the skin cleansed with 10% povidone-iodine solution. A subcutaneous pocket was made on the side of the median line by a 1.5 cm incision. Aseptically, 1 cm^2 sterile collagen-sealed Dacron graft (Albograft™, Sorin Biomedica Cardio, S.p.A., Saluggi VC, Italy) was implanted into the pocket. […] Pockets were closed by skin clips and 1 ml sterile saline solution with or without 2×10^7 bacteria was inoculated onto the graft surface using a tuberculin syringe to create a subcutaneous fluid-filled pocket. Some of the animals that had grafts soaked only with RIP or saline were injected intraperitoneally with antibiotics (cefazolin 30 mg/kg, imipenem 30 mg/kg, teicoplanin 10 mg/kg, levofloxacin 10 mg/kg). Grafts were explanted 7 days following implantation. Estimated RIP that adhered to graft was 10-26 μg.\n(§2) The explanted grafts were placed in sterile tubes, washed in sterile saline solution, placed in tubes containing 10 ml of phosphate-buffered saline solution and sonicated for 5 min to remove the adherent bacteria from the grafts. Quantitation of viable bacteria was performed by culturing serial 10-fold dilutions (0.1 ml) of the bacterial suspension on blood agar plates. All plates were incubated at 37° C. for 48 hr and evaluated for the presence of the strain. Bacteria were quantitated by counting the number of colony forming unites (CFU) per plate. To determine if bacteria were efficiently removed from the graft, washed and sonicated grafts were observed under a Nikon Eclipse E 600 optical microscope (Nikon Y-THS, Japan).\n(§3) Animals (15/group) received a Dacron-graft implanted in a subcutaneous pocket. Graft was subsequently infected with either S. epidermidis (tested on MSSE, MRSE and GISE) or with S. aureus (tested on MSSA, MRSA and GISA). The Dacron-graft prior to implantation was soaked in saline with or without 20 mg/l of RIP and some animals received […] of RIP i.p. as a prophylaxis treatment."}, "[2]": {"tested_on": "S. epidermidis MRSE strain", "assay": "Rat subcutaneous Dacron graft infection model, MRSE strain", "type": "in vivo", "conditions": "for Bacterial concentration, MRSE: 2×10^7 bacteria, explanted day 7; for Bacterial concentration, MRSE / Bacterial load on graft, MRSE: mean ± SD; for Bacterial load on graft, MRSE: Table 3A S. epidermidis", "protocol": "as §1, with “implantation.” for “implantation. Estimated RIP that adhered to graft was 10-26 μg.”\nas §2\nQuantitative culture results of the in vivo experiments were presented as mean+SD of the mean. Comparisons of the results were performed by the analysis of variance (ANOVA) on the log-transformed data. Statistical analysis was performed for in vitro adhesion assays using Student's t-Test by Microsoft Excel (Microsoft, Wash.). Significance was accepted when the P value was <0.05.\nTo test if RIP can prevent graft-associated infections, Dacron grafts were coated with or without RIP, and with or without various types of antibiotics (for local prophylaxis experiments). Coated grafts were implanted in rats, bacteria injected into the implants, implants removed after a week, and bacterial load determined. Alternatively, Dacron grafts were first coated with RIP, bacteria injected, and antibiotics were administered by the intraperitoneal route (for parenteral prophylaxis experiments). As a negative control, grafts were implanted without local or parenteral RIP/antibiotics prophylaxis and no bacteria were injected. As a positive control, grafts were implanted, bacteria were injected, but no RIP/antibiotics prophylaxis was given.\nas §3"}, "[3]": {"tested_on": "S. epidermidis adherence to HaCat cells", "assay": "Adherence of FITC-labeled S. epidermidis to HaCat cells", "type": "cell-based", "conditions": "5 μg RIP, 10^6 CFU, 30 min at 37° C.", "protocol": "FIG. 14A is a graph depicting adherence in the presence of RIP (RIP+) and in the absence of RIP (RIP−). FITC-labeled bacterial cells (10^6 CFU) were applied to microtiter plates containing confluent 10^4 HaCat cells, in the presence or absence of 5 μg RIP (RIP+/−). Cells were incubated for 30 min at 37° C., washed in PBS and fluorescence at 485/530 nm was determined.\nVirulence of S. epidermidis is also often associated with their ability to adhere to host cells and to form biofilm on medical devices. To test whether RIP can prevent S. epidermidis from colonizing host cells and therefore be a candidate for therapy and prevention, FITC-labeled S. epidermidis were incubated in the presence or absence of RIP with a confluent layer of keratinocytes (HaCat cells) for 30 min."}, "[4]": {"tested_on": "S. epidermidis (all strains tested)", "assay": "Rat subcutaneous Dacron graft infection model, all strains tested (GISE, MRSE, MSSE)", "type": "in vivo", "conditions": "RIP-coated graft", "protocol": "as §1, with “Some of the animals that had grafts soaked only with RIP or saline were injected intraperitoneally with antibiotics (cefazolin 30 mg/kg, imipenem 30 mg/kg, teicoplanin 10 mg/kg, levofloxacin 10 mg/kg). Grafts were explanted 7 days following implantation. Estimated RIP that adhered to graft was 10-26 μg.” left out\nas §2, with “To determine if bacteria were efficiently removed from the graft, washed and sonicated grafts were observed under a Nikon Eclipse E 600 optical microscope (Nikon Y-THS, Japan).” left out\nQuantitative culture results of the in vivo experiments were presented as mean+SD of the mean. […]"}, "[5]": {"tested_on": "S. aureus Newbould 305, AE-1, and environmental infections", "conditions": "cows; cited from earlier work"}, "[6]": {"tested_on": "S. aureus MRSA", "assay": "Rat subcutaneous Dacron graft infection model, MRSA strain", "type": "in vivo", "conditions": "Table 3B S. aureus, mean ± SD", "protocol": "as §1, §2, §3"}, "[7]": {"tested_on": "S. aureus Smith Diffuse", "conditions": "mice; cited from earlier work"}, "[8]": {"tested_on": "RNAIII", "conditions": "cited from earlier work"}, "[9]": {"conditions": "RIP local (graft soaked in 20 mg/l RIP)"}, "[10]": {"conditions": "RIP parenteral (10 mg/l RIP i.p.)"}},
  "note": "Where no end group is shown, it is not given here.",
  "data": [
    {"substance": "YSPWTNF(—NH2) (YSPWTNF-NH2) [RIP]", "values": [
      {"measurement": "Bacterial load on graft, GISE", "setting": "[1]; [9]", "value": "0.70 ± 0.28 ×10^4 CFU/ml"},
      {"measurement": "Bacterial load on graft, GISE", "setting": "[1]; RIP local + RIP parenteral", "value": "0.00 ± 0 ×10^4 CFU/ml"},
      {"measurement": "Bacterial load on graft, GISE", "setting": "[1]; [10]", "value": "0.49 ± 0.11 ×10^4 CFU/ml"},
      {"measurement": "Bacterial concentration, MRSE", "setting": "[2]; A. Local prophylaxis: graft soaked 20 min in RIP 10 mg/l and/or antibiotic (mupirocin 100, quinupristin-dalfopristin 50, levofloxacin 30, rifampin 5 mg/l), rats", "value": "0.74 ± 0.18 ×10^4 CFU/ml"},
      {"measurement": "Bacterial concentration, MRSE", "setting": "[2]; B. Parenteral prophylaxis: antibiotic intraperitoneally (cefazolin 30, imipenem 30, teicoplanin 10, levofloxacin 10 mg/kg), RIP as 10 mg/l graft soak, rats", "value": "0.74 ± 0.18 ×10^4 CFU/ml"},
      {"measurement": "Bacterial load on graft, MRSE", "setting": "[2]; [9]", "value": "0.087 ± 0.023 ×10^4 CFU/ml"},
      {"measurement": "Bacterial load on graft, MRSE", "setting": "[2]; RIP local + RIP parenteral", "value": "0.00 ± 0 ×10^4 CFU/ml"},
      {"measurement": "Bacterial load on graft, MRSE", "setting": "[2]; [10]", "value": "0.052 ± 0.017 ×10^4 CFU/ml"},
      {"measurement": "Quantitative culture results of explanted graft, MRSE strain", "setting": "[2]; peptide-soaked/coated Dacron graft (RIP 10 mg/l), no antibiotic, rats, day 7", "value": "7.4×10^3±1.8×10^3 CFU/ml"},
      {"measurement": "S. epidermidis adherence to HaCat cells", "setting": "[3]", "value": "significantly (p<0.05) reduced"},
      {"measurement": "Reduction of bacterial load", "setting": "[4]", "value": 3, "unit": "log"},
      {"measurement": "Suppressing S. aureus infection: mastitis", "setting": "[5]", "value": "extremely effective"},
      {"measurement": "Bacterial load on graft, MRSE", "setting": "[6]; [9]", "value": "0.62 ± 0.21 ×10^4 CFU/ml"},
      {"measurement": "Bacterial load on graft, MRSE", "setting": "[6]; RIP local + RIP parenteral", "value": "0.00 ± 0 ×10^4 CFU/ml"},
      {"measurement": "Bacterial load on graft, MRSE", "setting": "[6]; [10]", "value": "0.29 ± 0.088 ×10^4 CFU/ml"},
      {"measurement": "Suppressing S. aureus infection: cellulitis", "setting": "[7]", "value": "extremely effective"},
      {"measurement": "Inhibiting RNAIII in vitro", "setting": "[8]", "value": "extremely effective"}
    ]}
  ]
}
